Publication PMC9880438, “Pharmacokinetics of active compounds of a Terminalia chebula Retz. Ethanolic extract after oral administration rats using UPLC-MS/MS” (Frontiers in Pharmacology, 2023)
Where two headings read alike, the source gives them in different places.

Columns and labels:
[1] = Stability of QC samples of the analytes in rat plasma under storage conditions; format: physicochemical; conditions: n = 6
Procedure: Preparation of quality control (QC) samples with three concentrations (low, medium, and high) of 16, 160, and 3,200 ng/ml for ellagic acid; 1.6, 16, 320 ng/ml for protocatechuic acid, ethyl gallate and 1,2,3,4,6-O-pentagalloylglucose; 40, 400 and 8,000 ng/ml for chebulic acid, gallic acid, corilagin and chebulinic acid and 160, 1,600, 32000 ng/ml for chebulagic acid. Both QC samples and stock solutions were stored in a refrigerator at 4°C.
Under variable treatment conditions: stored for 12 h at auto-sampler, for 4 hours at room temperature, under three freeze-thaw cycles, and kept at −80°C for 7 days, quality control samples were analyzed to assess the stability of the nine analytes in plasma.

[2] = system: HepG2 cells; set-up: method as in Achari et al., 2011; conditions: 50 μM; ref Achari et al., 2011; cited from earlier work
[3] = Pharmacokinetic study in rats after oral administration of TC extracts (UPLC-MS/MS of plasma); conditions: male, Sprague-Dawley, rat, plasma, po, 10 g/kg
Procedure: (§1) UPLC-MS/MS system was used for analysis and monitoring, which consisted primarily of an Agilent 1290 UPLC system (Agilent Technologies, Germany) and an Agilent 6,470 series triple quad (TQ) mass spectrometer (MS) (Agilent Technologies, Singapore) equipped with an electrospray ionization source.
(§2) Separation was carried out on an ACQUITY UPLC® HSS T3 column (2.1 × 100 mm, 1.8 μm), and temperature in the column was kept at 20°C. In the mobile phase, 0.1% formic acid in water and acetonitrile were used as solvents A and B, respectively. Gradient elution was performed as follows: 1%–5% B at 0–3 min; 5%–30% B at 3–4 min; 30%–40% B at 4–8 min; 40%–100% B at 8–9 min; 100%–100% B at 9–12 min. The flow rate was set at 0.3 ml/min and the injection volume was 10 μL.
(§3) Multiple reaction monitoring (MRM) was used for quantitative analysis in negative (−) ionization mode. The mass spectrometric parameters were set as follows: drying gas (N2) temperature was 300°C; gas (N2) flow rate was 7 L/min; atomizer pressure was 35 psi; sheath gas flow was 11 L/min and capillary voltage was 3800 V. The specific mass spectrometric parameters of the precursor ion, product ion, fragmentor, collision energy, and ion modes of the nine compounds and IS are shown in Table 1.
(§4) The plasma sample (100 μl) was sequentially spiked with 20 μl IS solutions (caffeic acid, 1,000 ng/ml); 20 μL methanol, and 10 μl formic acid, then vortex-mixed for 1 min. The mixture was precipitated protein with 1,000 μl methanol by vortex mixing for 3 min. The supernatant was collected into a 1.5 ml clean centrifuge tube after centrifugation at for 10 min 14,000 rpm, and evaporated under a nitrogen stream until dry. After that, the residue was redissolved in 100 μl methanol, vortex-mixed for 3 min, then centrifuged for 10 min at 14,000 rpm. 10 μl analyte was injected into the UPLC-MS/MS system.
(§5) In this study, six of male rats were used, given free access to water, and fasted for 12 h before the experimental period. The TC extracts were dissolved in 0.5% CMC-Na aqueous solution as a suspension at a concentration of 1 g/ml. A dose of 10 g/kg of the suspension was administered to the rats orally, the blood samples of approximately 300 μL were drawn from the fundus venous plexus of rats pre- and post-oral administration at 0.00, 0.08, 0.17, 0.25, 0.50, 0.75, 1, 2, 4, 6, 8, 10, 12, 24, 36, 48, 60, 72, 84, 96, 120, 144 and 168 h, respectively. For analysis, the plasma supernatants collected from the centrifuged plasma were frozen at −80°C after centrifugation for 10 min at 6,000 rpm.
(§6) Data were expressed as mean ± standard deviation (mean ± SD). MassHunter Workstation software (version B.09.00) was quantitatively used to calculate the plasma concentrations of nine analytes. To evaluate the specific pharmacokinetic parameters, DAS Software (DAS 3.0, Medical College of Wannan, China) was used to process the pharmacokinetic results.

[4] = rat, in vivo, po
Procedure: as §1, §2, §3, §4, §5, §6

[5] = set-up: method as in Mishra et al., 2013; conditions: dose of 40 mg/kg; ref Mishra et al., 2013; cited from earlier work
[6] = in vivo; conditions: male, Sprague-Dawley, rat, po, 10 g/kg
Procedure: as §1, §2, §3, §4, §5, §6

[7] = spiked 40 ng/mL, autosampler for 12 h
[8] = spiked 40 ng/mL, room temperature for 4 h
[9] = spiked 40 ng/mL, three freeze-thaw cycles
[10] = spiked 40 ng/mL, −80°C for 7 days
[11] = spiked 400 ng/mL, autosampler for 12 h
[12] = spiked 400 ng/mL, room temperature for 4 h
[13] = spiked 400 ng/mL, three freeze-thaw cycles
[14] = spiked 400 ng/mL, −80°C for 7 days
[15] = spiked 8,000 ng/mL, autosampler for 12 h
[16] = spiked 8,000 ng/mL, room temperature for 4 h
[17] = spiked 8,000 ng/mL, three freeze-thaw cycles
[18] = spiked 8,000 ng/mL, −80°C for 7 days

Row | Compound | AUC [3] | AUC(0-inf) [3] | Cmax [3] | MRT [3] | MRT inf [3] | Tmax [3] | half-life [3] | Measured concentration after storage [1, 7] | Measured concentration after storage [1, 8] | Measured concentration after storage [1, 9] | Measured concentration after storage [1, 10] | Measured concentration after storage [1, 11] | Measured concentration after storage [1, 12] | Measured concentration after storage [1, 13] | Measured concentration after storage [1, 14] | Measured concentration after storage [1, 15] | Measured concentration after storage [1, 16] | Measured concentration after storage [1, 17] | Measured concentration after storage [1, 18] | also measured
1 | O=C(O)C[C@@H]1C(=O)O[C@H]2[C@@H]3OC(=O)c4cc(O)c(O)c(O)c4-c4c(cc(O)c(O)c4O)C(=O)OC[C@H]2O[C@@H](OC(=O)c2cc(O)c(O)c(O)c2)[C@@H]3OC(=O)c2cc(O)c(O)c3c2[C@H]1[C@H](O)C(=O)O3 [Chebulagic acid, chebulagic acid] | 231 ± 64.6 µg·h/mL | 234 ± 65.7 µg·h/mL | 4980 ng/mL | 49.8 ± 4.87 h | 51.8 ± 5.3 h | 5.67 ± 3.67 h | 1200 ± 151 min | – | – | – | – | – | – | – | – | – | – | – | – | Measured concentration after storage ([1]; spiked 160 ng/mL, autosampler for 12 h): 145.5 ± 16.4 ng/mL; Measured concentration after storage ([1]; spiked 160 ng/mL, room temperature for 4 h): 160.8 ± 6.2 ng/mL; Measured concentration after storage ([1]; spiked 160 ng/mL, three freeze-thaw cycles): 167.9 ± 7.8 ng/mL; Measured concentration after storage ([1]; spiked 160 ng/mL, −80°C for 7 days): 168.0 ± 4.2 ng/mL; Measured concentration after storage ([1]; spiked 1,600 ng/mL, autosampler for 12 h): 1,448.9 ± 70.5 ng/mL; Measured concentration after storage ([1]; spiked 1,600 ng/mL, room temperature for 4 h): 1,465.3 ± 158.2 ng/mL; Measured concentration after storage ([1]; spiked 1,600 ng/mL, three freeze-thaw cycles): 1,391.9 ± 61.5 ng/mL; Measured concentration after storage ([1]; spiked 1,600 ng/mL, −80°C for 7 days): 1,512.8 ± 65.1 ng/mL; Measured concentration after storage ([1]; spiked 32000 ng/mL, autosampler for 12 h): 34277.3 ± 2,721.2 ng/mL; Measured concentration after storage ([1]; spiked 32000 ng/mL, room temperature for 4 h): 31970.0 ± 1,256.3 ng/mL; Measured concentration after storage ([1]; spiked 32000 ng/mL, three freeze-thaw cycles): 33770.8 ± 3,365.5 ng/mL; Measured concentration after storage ([1]; spiked 32000 ng/mL, −80°C for 7 days): 31615.2 ± 953.8 ng/mL; Sensitivity of HepG2 cells towards Dox induced cytotoxicity [2]: increased the sensitivity
2 | O=C(O)C[C@H](C(=O)O)[C@H]1c2c(cc(O)c(O)c2O)C(=O)O[C@@H]1C(=O)O [Chebulic acid, chebulic acid] | – | – | – | – | – | – | – | 35.6 ± 3.9 ng/mL | 39.9 ± 1.9 ng/mL | 40.1 ± 3.3 ng/mL | 37.5 ± 2.1 ng/mL | 393.3 ± 52.6 ng/mL | 395.7 ± 29.7 ng/mL | 398.4 ± 12.2 ng/mL | 364.4 ± 17.5 ng/mL | 8,230.9 ± 726.4 ng/mL | 7,996.4 ± 517.7 ng/mL | 7,691 ± 316.7 ng/mL | 6,878.6 ± 535.3 ng/mL | T1/2 [4]: 1.51 h; AUC (0-tn) ([4]; 10 g/kg): 29045.30 ± 4,395.44 h·ng/mL; AUC (0-∞) ([4]; 10 g/kg): 34069.03 ± 6,641.84 h·ng/mL; Cmax ([4]; 10 g/kg): 1927.06 ± 572.23 ng/mL; MRT (0-tn) ([4]; 10 g/kg): 33.56 ± 3.77 h; MRT (0-∞) ([4]; 10 g/kg): 77.92 ± 22.14 h; T1/2 ([4]; 10 g/kg): 6.60 ± 4.36 h; Tmax ([4]; 10 g/kg): 1.67 ± 0.52 h
3 | O=C(O)C[C@@H]1C(=O)O[C@H]2[C@H](OC(=O)c3cc(O)c(O)c(O)c3)[C@@H](OC(=O)c3cc(O)c(O)c4c3[C@H]1[C@H](O)C(=O)O4)[C@H](OC(=O)c1cc(O)c(O)c(O)c1)O[C@@H]2COC(=O)c1cc(O)c(O)c(O)c1 [Chebulinic acid, chebulinic acid] | 38.2 ± 16.3 µg·h/mL | 41.9 ± 15.8 µg·h/mL | 853 ± 433 ng/mL | 58.2 ± 5.63 h | 76 ± 15.3 h | 1.83 ± 0.41 h | 2600 ± 792 min | 42.2 ± 5.1 ng/mL | 36.8 ± 3.9 ng/mL | 41.8 ± 2.3 ng/mL | 47.1 ± 1.6 ng/mL | 359.7 ± 18.1 ng/mL | 414.3 ± 21.9 ng/mL | 378.1 ± 29.2 ng/mL | 373.5 ± 23.6 ng/mL | 7,174.2 ± 321.2 ng/mL | 8,592.3 ± 543.8 ng/mL | 8,447.4 ± 574.6 ng/mL | 8,787.4 ± 801 ng/mL | Anti-gastric ulcer effect [5]: good anti-gastric ulcer effect
4 | O=C(O)c1cc(O)c(O)c(O)c1 [Gallic acid, gallic acid] | – | – | – | – | – | – | – | 34.9 ± 5.1 ng/mL | 35.5 ± 1.0 ng/mL | 41.0 ± 2.8 ng/mL | 41.2 ± 0.8 ng/mL | 431.7 ± 27.3 ng/mL | 385 ± 36.1 ng/mL | 393.9 ± 35.3 ng/mL | 358.6 ± 21.8 ng/mL | 8,051.6 ± 602.3 ng/mL | 8,051.2 ± 472.7 ng/mL | 8,222.3 ± 456.3 ng/mL | 8,304.7 ± 418.5 ng/mL | AUC [6]: 16000 ng·h/mL; AUC(0-inf) [6]: 16000 ng·h/mL; Cmax [6]: 2230 ng/mL; MRT [6]: 6.58 ± 1.07 h; MRT inf [6]: 6.58 ± 1.07 h; Tmax [6]: 1.17 ± 0.41 h; half-life [6]: 90.6 ± 25.8 min; T1/2 ([4]; male, Sprague-Dawley): 2.06 h
